Results published in US20250059205A1, “Heterocyclic Compounds and Methods of Use” (AMGEN INC., priority 2021, published 2025).
pIC50: −log10 of the molar value.

How the values were obtained:
[1] = molecular target: GDP-bound KRAS protein (aa 1-169), containing both G12D and C118A amino acid substitutions (Homo sapiens, UniProt P01116, C118A/G12D); assay: KRAS G12D Coupled Nucleotide Exchange Assay; format: biochemical; settings: 2 h compound pre-incubation
Method: Following compound pre-incubation, purified SOS protein (aa 564-1049) and GTP (Roche 10106399001) were added to the assay wells and incubated for an additional 30 min. […] The assay plates were then read on a PerkinElmer EnVision Multilabel Reader, using AlphaScreen® technology, and data were analyzed using a 4-parameter logistic model to calculate IC50 values.

[2] = molecular target: His-tagged KRAS G12D protein (Homo sapiens, UniProt P01116, G12D); assay: KRAS G12D TR-FRET Assay; format: binding
Sequence of His-tagged KRAS G12D protein (P01116 1-188 isoform P01116-2 G12D): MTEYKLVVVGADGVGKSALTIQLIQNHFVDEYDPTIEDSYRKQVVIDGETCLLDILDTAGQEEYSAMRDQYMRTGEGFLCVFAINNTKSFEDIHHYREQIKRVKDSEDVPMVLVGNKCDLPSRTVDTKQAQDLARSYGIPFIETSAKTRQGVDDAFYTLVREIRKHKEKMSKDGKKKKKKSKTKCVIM

[3] = system: Phosphorylation of ERK1/2 in AsPC-1 cells; assay: Phospho-ERK1/2 MSD Assay (AsPC-1 cells); format: cell-based; settings: Homo sapiens, ASPC1, 2 h, 2 hours treatment, read-out: p-ERK (AsPC-1 cells) IC50
How it was run: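 Read-out: MSD electrochemiluminescent detection of phosphorylated ERK1/2 in whole-cell lysates, fitted to a 4-parameter logistic curve for IC50. Prior to lysis, AsPC-1 cells (25,000 per well) received a 2 h compound dose-response at 37 °C.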

[4] = system: Phosphorylation of ERK1/2 in A-427 cells; assay: Phospho-ERK1/2 MSD Assay (A-427 cells); format: cell-based; settings: Homo sapiens, A-427, 2 h, 2 h treatment, read-out: p-ERK (A427 cells) IC50
How it was run: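 ERK1/2 phosphorylation measured by Meso Scale whole-cell lysate assay after A-427 cells were exposed to a titration of compound for 2 h at 37 °C.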

Sequence of GDP-bound KRAS protein (aa 1-169), containing both G12D and C118A amino acid substitutions (P01116 1-169 isoform P01116-2 G12D/C118A): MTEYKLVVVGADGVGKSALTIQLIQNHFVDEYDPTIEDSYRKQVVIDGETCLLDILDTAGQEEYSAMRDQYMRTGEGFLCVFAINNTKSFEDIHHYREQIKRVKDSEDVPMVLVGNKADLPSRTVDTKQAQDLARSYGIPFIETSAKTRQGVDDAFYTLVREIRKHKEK

| Compound | Avg 2 h Coupled Exchange IC50 [1] | pIC50 [2] | pIC50 [3] | pIC50 [4] |
| --- | --- | --- | --- | --- |
| Cc1cc2[nH]ncc2c(-c2c(F)cc3c(N4C[C@H]5CC[C@@H](C4)N5)nc(OC[C@@]45CCCN4C[C@H](F)C5)nc3c2F)c1Cl [Example 75, 4-((1R,5S)-3,8-diazabicyclo[3.2. 1]octan-3-yl)-7-(5-chloro-6-methyl-1H-indazol-4-yl)-6,8-difluoro-2-(((2R,7aS)-2-fluorotetrahydro-1H-pyrrolizin-7a(5H)-yl)methoxy) quinazoline] | 3 nM | 8.30 | 6.53 | 6.86 |
| Oc1cc(-c2c(F)cc3c(N4C[C@@H]5C[C@H]4CN5)nc(OC[C@@]45CCCN4C[C@H](F)C5)nc3c2F)c2ccccc2c1 [Example 49, 4-(4-((1S,4S)-2,5-diazabicyclo[2.2. 1]heptan-2-yl)-6,8-difluoro-2-(((2R,7aS)-2-fluorotetrahydro-1H-pyrrolizin-7a(5H)-yl)methoxy)quinazolin-7-yl)naphthalen-2-ol] | 9 nM | 7.74 | 5.44 | 6.19 |
| Fc1c(-c2c(C3CC3)ccc3[nH]ncc23)ccc2c(N3C[C@H]4CC[C@@H](C3)N4)nc(OC[C@@]34CCCN3C[C@H](F)C4)nc12 [Example 193, 4-((1R,5S)-3,8-diazabicyclo[3.2.1]octan-3-yl)-7-(5-cyclopropyl-1H-indazol-4-yl)-8-fluoro-2-(((2R,7aS)-2-fluorotetrahydro-1H-pyrrolizin-7a(5H)-yl)methoxy) quinazoline] | 10 nM | 7.82 | 5.97 | 6.32 |
| Nc1cc(-c2ccc3c(N4[C@@H]5CC[C@H]4CNC5)nc(OC[C@@]45CCCN4C[C@H](F)C5)nc3c2F)c2ccccc2c1 [Example 26, 4-(4-((1R,5S)-3,8-diazabicyclo[3.2. 1]octan-8-yl)-8-fluoro-2-(((2R,7aS)-2-fluorotetrahydro-1H-pyrrolizin-7a(5H)-yl)methoxy)quinazolin-7-yl)naphthalen-2-amine] | 18 nM | 7.47 | 6.16 | 5.95 |
| CCc1c(F)ccc2cc(O)cc(-c3c(F)cc4c(N5C[C@H]6CC[C@@H](C5)N6)nc(/C=C/C(C)(C)O)nc4c3F)c12 [Example 218, 4-(4-((1R,5S)-3,8-Diazabicyclo[3.2.1]octan-3-yl)-6,8-difluoro-2-((E)-3-hydroxy-3-methylbut-1-en-1-yl)quinazolin-7-yl)-S-ethyl-6-fluoronaphthalen-2-ol] | 6 nM | 8.22 | 5.94 | 5.84 |
| Oc1ccc(-c2c(F)cc3c(N4C[C@H]5CC[C@@H](C4)N5)nc(OC[C@@]45CCCN4C[C@H](F)C5)nc3c2F)c2ccccc12 [Example 122, 4-(4-((1R,5S)-3,8-diazabicyclo[3.2.1]octan-3-yl)-6,8-difluoro-2-(((2R,7aS)-2-fluorotetrahydro-1H-pyrrolizin-7a(5H)-yl)methoxy)quinazolin-7-yl)naphthalen-1-ol] | 5 nM | 8.30 | 6.55 | 6.78 |
| N#Cc1ccc2[nH]ncc2c1-c1ccc2c(N3C[C@H]4CC[C@@H](C3)N4)nc(OC[C@@]34CCCN3C[C@H](F)C4)nc2c1F [Example 197, 4-(4-((1R,5S)-3,8-Diazabicyclo[3.2.1]octan-3-yl)-8-fluoro-2-(((2R,7aS)-2-fluorotetrahydro-1H-pyrrolizin-7a(5H)-yl)methoxy)quinazolin-7-yl)-1H-indazole-5-carbonitrile] | 54 nM | 6.97 | < 5.00 | 5.39 |
| Oc1cc(-c2ccc3c(N4C[C@H]5CC[C@@H](C4)N5)nc(OC[C@@]45CCCN4C[C@H](F)C5)nc3c2F)c2c(F)c(F)ccc2c1 [Example 142, 4-(4-((1R,5S)-3,8-diazabicyclo[3.2.1]octan-3-yl)-8-fluoro-2-(((2R,7aS)-2-fluorotetrahydro-1H-pyrrolizin-7a(5H)-yl)methoxy)quinazolin-7-yl)-5,6-difluoronaphthalen-2-ol] | 2 nM | 8.70 | 7.72 | 8.22 |
| Cc1ccc2[nH]ncc2c1-c1ccc2c(N3C[C@H]4CC[C@@H](C3)N4)nc(OC[C@@]34CCCN3C[C@H](F)C4)nc2c1F [Example 195, 4-((1R,5S)-3,8-diazabicyclo[3.2.1]octan-3-yl)-8-fluoro-2-(((2R,7aS)-2-fluorotetrahydro-1H-pyrrolizin-7a(5H)-yl)methoxy)-7-(5-methyl-1H-indazol-4-yl)quinazoline] | 17 nM | 7.40 | 5.57 | 5.62 |
| CCc1c(F)ccc2cc(O)cc(-c3c(F)cc4c(N5C[C@H]6CC[C@@H](C5)N6)nc(OCC(C)(O)CC)nc4c3F)c12 (stereo partly drawn) [Example 214, 4-(4-((1R,5S)-3,8-diazabicyclo[3.2.1]octan-3-yl)-6,8-difluoro-2-(2-hydroxy-2-methylbutoxy)quinazolin-7-yl)-5-ethyl-6-fluoronaphthalen-2-ol] | 5 nM | 7.89 | 5.92 | 5.77 |
| Cc1c(Cl)cc2[nH]ncc2c1-c1c(F)cc2c(N3C[C@H]4CC[C@@H](C3)N4)nc(OC[C@@]34CCCN3C[C@H](F)C4)nc2c1F [Example 74, 4-((1R,5S)-3,8-diazabicyclo[3.2. 1]octan-3-yl)-7-(6-chloro-5-methyl-1H-indazol-4-yl)-6,8-difluoro-2-(((2R,7aS)-2-fluorotetrahydro-1H-pyrrolizin-7a(5H)-yl)methoxy) quinazoline] | 7 nM | 8.15 | 6.41 | 6.83 |
| C=C(C)c1ccc2[nH]ncc2c1-c1ccc2c(N3C[C@H]4CC[C@@H](C3)N4)nc(OC[C@@]34CCCN3C[C@H](F)C4)nc2c1F [Example 198, 4-((1R,5S)-3,8-Diazabicyclo[3.2.1]octan-3-yl)-8-fluoro-2-(((2R,7aS)-2-fluorotetrahydro-1H-pyrrolizin-7a(5H)-yl)methoxy)-7-(5-(prop-1-en-2-yl)-1H-indazol-4-yl)quinazoline] | 18 nM | 7.38 | 5.53 | 5.28 |
| Oc1cc(-c2ccc3c(N4C[C@@H]5C[C@H]4CN5)nc(OC[C@@]45CCCN4C[C@H](F)C5)nc3c2F)c2ccccc2c1 [Example 50, 4-(4-((1S,4S)-2,5-diazabicyclo[2.2. 1]heptan-2-yl)-8-fluoro-2-(((2R,7aS)-2-fluorotetrahydro-1H-pyrrolizin-7a(5H)-yl)methoxy)quinazolin-7-yl)naphthalen-2-ol] | 7 nM | 7.96 | 5.35 | 6.00 |
| C#Cc1cccc2cc(O)cc(-c3c(F)cc4c(N5C[C@@H]6CC[C@H]5CN6)nc(OC[C@@]56CCCN5C[C@H](F)C6)nc4c3F)c12 [Example 180, 4-(4-((1S,4S)-2,5-diazabicyclo[2.2.2]octan-2-yl)-6,8-difluoro-2-(((2R,7aS)-2-fluorotetrahydro-1H-pyrrolizin-7a(5H)-yl)methoxy)quinazolin-7-yl)-5-ethynylnaphthalen-2-ol] | 4 nM | 8.52 | 7.74 | 8.52 |
| Cc1c(Cl)cc2[nH]ncc2c1-c1c(Cl)cc2c(N3C[C@H]4CC[C@@H](C3)N4)nc(OC[C@@]34CCCN3C[C@H](F)C4)nc2c1F [Example 73, 4-((1R,5S)-3,8-diazabicyclo[3.2. 1]octan-3-yl)-6-chloro-7-(6-chloro-5-methyl-1H-indazol-4-yl)-8-fluoro-2-(((2R,7aS)-2-fluorotetrahydro-1H-pyrrolizin-7a(5H)-yl)methoxy) quinazoline] | 17 nM | 7.82 | 6.15 | 6.37 |
| Nc1ccc(C2CC2)c(-c2ccc3c(N4C[C@H]5CC[C@@H](C4)N5)nc(OC[C@@]45CCCN4C[C@H](F)C5)nc3c2F)n1 [Example 224, 6-(4-((1R,5S)-3,8-diazabicyclo[3.2.1]octan-3-yl)-8-fluoro-2-(((2R,7aS)-2-fluorotetrahydro-1H-pyrrolizin-7a(5H)-yl)methoxy)quinazolin-7-yl)-5-cyclopropylpyridin-2-amine] | 41 nM | 6.56 | < 5.00 | 5.12 |
| CCc1c(F)ccc2cc(O)cc(-c3cc4nc(OC[C@@]56CCCN5C[C@H](F)C6)nc(N5C[C@H]6CC[C@@H](C5)N6)c4cc3F)c12 [Example 83, 4-(4-((1R,5S)-3,8-diazabicyclo[3.2. 1]octan-3-yl)-6-fluoro-2-(((2R,7aS)-2-fluorotetrahydro-1H-pyrrolizin-7a(5H)-yl)methoxy)quinazolin-7-yl)-5-ethyl-6-fluoronaphthalen-2-ol] | 2 nM | 8.52 | 7.11 | 7.55 |
